# How the values were obtained:
# LNCap cells [1] = experiment: Apoptosis immuno-assay (mono and oligonucleosomes); assay type: cell-based; conditions: 2 days, 10% FBS
# Method: The induction of apoptosis by means of the liquid extract P9605 prepared according to example 1 was determined.
# As preliminary test was added for the measurement of the induction of apoptosis the tumor necrosis factor TNF-α alone as well as in combination with 100 nM dihydrotestosterone, abbreviated with DHT, to LNCap cells. The so treated cells were cultivated during 2 days in 10% FBS culture medium.
# The apoptosis of the cells was measured by applying a commercial apoptosis-immuno-assay-kit in which are detected specifically the DNA and histon fragments that are present as mono and oligonucleosomes.
# Analogous experiments were carried out with DHT alone as well as in combination with 10 μg/ml of the extract prepared according to the present invention.
# LNCap cells [2] = conditions: control value at zero extract; cited from earlier work
# LNCap cells [3] = conditions: control value at zero extract; cited from earlier work; remark: listed apart in the source
# PC-3 cells = experiment: Inhibition of the cell proliferation, PC-3 cells; assay type: cell-based; conditions: PC-3, 4 days, 10% FBS culture medium, versus solvent control
# Method: (§1) With the liquid extract P9605 prepared according to example 1 were carried out cell proliferation tests. As control was carried along a typical substance of content of the cubeben fruits, the lignan Cubebin.
# (§2) For the measurement of the inhibition of the cell proliferation this extract was added to LNCap and to PC-3 cells. The so treated cells were cultivated during 4 days in 10% FES culture medium.
# (§3) For comparison the pure lignan Cubebin, that is contained in the extract prepared according to the invention and according to example 1 in an amount up to 20 m/m of the dry substance, was added also to LNCap and to PC-3 cells. The so treated cells were cultivated during 4 days in 10 FBS culture medium.
# (§4) Thereby it was proceeded according to T. Lindl, Zell- und Gewebekultur, 4th revised edition, 2000, Spektrum Akademischer Verlag, Heidelberg.
# (§5) All obtained datas are given in percents with regard to the solvent control (test without extract and without Cubebin); there are given the average values with Standard deviation from 4 experiments with 3-fold repetition.
# 5α-reductase type II = target: T1, 5α-reductase type II (Homo sapiens, UniProt P31213); experiment: Inhibition of the 5α-reductase type II activity (HEK293 homogenate, 3H-testosterone to 3H-DHT); assay type: biochemical; conditions: homogenate of HEK293 cells over expressing the enzyme
# T1 construct: expressed in transfected cells; host or cells: HEK293 (homogenate)
# T1 sequence (P31213 1-254): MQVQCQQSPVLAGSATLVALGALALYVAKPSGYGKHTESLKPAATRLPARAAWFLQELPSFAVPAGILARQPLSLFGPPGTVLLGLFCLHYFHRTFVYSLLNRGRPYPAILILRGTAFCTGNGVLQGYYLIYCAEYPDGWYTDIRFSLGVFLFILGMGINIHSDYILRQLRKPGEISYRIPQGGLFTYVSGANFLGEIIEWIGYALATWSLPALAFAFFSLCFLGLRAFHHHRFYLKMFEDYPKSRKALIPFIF
# Method: The inhibition of the 5α-reductase type II activity by means of the liquid extract P9605 prepared according to example 1 was determined.
# The assay was realized with a homogenate of HEK293 cells that over express the 5α-reductase type II (Reichert W., Hartmann R. W. and Jose J.; 2001, Journal Enzyme Inhibition, Vol. 16, 47-53).
# The influence of the extract prepared according to the present invention and of the pure substance Cubebin on the activity of the 5α-reductase type II was determined by means of the measurement of the conversion of ^3H-testosterone in ^3H-DHT.
# As control substance was used the known 5α-reductase inhibitor “Finasterid”.
# All obtained datas are given in percents with regard to the solvent control (test without extract); there are given the average values with Standard deviation from 4 experiments with 3-fold repetition.
# androgen receptor = experiment: Amount of androgen receptor by Western-blot analysis; assay type: cell-based; conditions: 2 days, 10% FBS
# Method: The influence of the generation of androgen receptors by means of the liquid extract P9605 prepared according to example 1 was determined.
# Thereby in one experiment LNCap cells were cultivated during 2 days in 10% FBS culture medium to which were added different concentrations either of the extract prepared according to the present invention or of the pure substance Cubebin.
# Then was determined the change of the amount of the androgen receptor by means of the Western-blot analysis.
# In FIG. 10 are shown the bands of the androgen receptor.
# [4] = system: prostate specific antigen (PSA); experiment: Secretion of the prostate specific antigen (immuno-assay, PSA/DNA); assay type: cell-based; conditions: LNCap, 2 days, 10% CSS, different concentrations
# LNCap cells [5] = experiment: Inhibition of the cell proliferation, LNCap cells; assay type: cell-based; conditions: 4 days, 10% FBS culture medium, versus solvent control
# Method: as §1, §2, §3, §4, §5
compound,measurement,setting,value
TNF-α,induction of apoptosis,LNCap cells [1]; TNF-α alone,induces the apoptosis of the tumor cells in dependency of the dose
"C[C@]12CCC(=O)C[C@@H]1CC[C@@H]1[C@@H]2CC[C@]2(C)[C@@H](O)CC[C@@H]12 [DHT, dihydrotestosterone]",effect on the TNF-α induced apoptosis,LNCap cells [1]; TNF-α in combination with 100 nM DHT,revoked completely or nearly completely
same,effect of DHT on the cell proliferation,LNCap cells [2],enhances the cell proliferation
same,effect of DHT on the DNA synthesis,LNCap cells [3],enhances the DNA synthesis
OC1OC[C@H](Cc2ccc3c(c2)OCO3)[C@H]1Cc1ccc2c(c1)OCO2 (mixture of isomers) [Cubebin],anti-proliferate effect on PC-3 cells,PC-3 cells,anti-proliferate effect on LNCap and PC-3 cells in dependency of the respective dose
same,"IC50-value, 5α-reductase type II",5α-reductase type II,9.9 µg/mL
same,inhibitive effect on the activity of the 5α-reductase type II,5α-reductase type II,inhibitive effect
same,androgen receptor denseness in LNCap cells,androgen receptor,reduced increasingly in dependency of the dose
same,inhibition of the secretion of PSA (PSA/DNA),[4],inhibit the secretion of the prostate specific antigen (PSA) in dependency of the respective dose
same,anti-proliferate effect on LNCap cells,LNCap cells [5],anti-proliferate effect on LNCap and PC-3 cells in dependency of the respective dose
CC(C)(C)NC(=O)[C@H]1CC[C@H]2[C@@H]3CC[C@H]4NC(=O)C=C[C@]4(C)[C@H]3CC[C@]12C [Finasterid],inhibitive effect on the activity of the 5α-reductase type II,5α-reductase type II,inhibiting effect

# — US8404286B2, “Use of extracts or of extract compounds from Piper cubeba L. as active components in a medicament for the treatment of cancer” (Viridis Pharmaceutical Limited, priority 2007, dated 2013)
